Assays:
[1] = tested on: volume-induced bladder contractions; assay: In vivo rat bladder assay; conditions: intravenous; anesthetized female Sprague-Dawley rats; normalized to atropine response
Description: Female Sprague-Dawley rats (Harlan, Indianapolis, Ind.) weighing 200 to 300 g were anesthetized with urethane (1.5 g/kg, s.c., Sigma, St. Louis, Mo.), with a supplement of 0.25 g/kg, s.c. urethane as needed. Urethane was administered at a concentration of 0.25 g/mL.
Rats were prepared for surgery by shaving the neck and abdomen and cleansing with ethanol wipes. First, an incision was made on the ventral surface. An intravenous catheter was placed by isolating and ligating the femoral vein. […]
Thereafter, an intravenous dose of the test compound was administered and changes in VIBCAmp were recorded for 15 minutes. Atropine (0.1 mg/kg) was then administered intravenously (1 mL/kg) as a positive control and VIBCAmp and data was recorded for an additional 15 minutes. […]
Alternatively, after the vehicle, increasing cumulative intravenous doses of the test compound were administered at 15 minute intervals (1 mL/kg) and changes in VIBCAmp were recorded for 15 minutes. […]
The average VIBCAmp during the 5-15 minute period after test compound and atropine was determined and subtracted from the average VIBCAmp during the 5-15 minute post-vehicle period to obtain the test compound or atropine-induced change in VIBCAmp. […]

[2] = tested on: oxotremorine-induced salivation; assay: In vivo rat salivation assay
Description: Female Sprague-Dawley rats weighing 200 to 300 g were anesthetized with urethane (1.5 g/kg, s.c., Sigma, St. Louis, Mo.), with a supplement of 0.25 g/kg, s.c. urethane as needed. Urethane was administered at a concentration of 0.25 g/mL.
Rats were placed on a heated blanket on their dorsal side in an inclined position (20° angle) position (head down). A swab was placed in the rat's mouth. The test compound or vehicle was administered intravenously via the tail vein. After 5 min., oxotremorine (1.0 mg/kg) was administered subcutaneously. The swab was discarded and
Replaced by a pre-weighed swab. Saliva was then collected for 10 min. and then the swab was removed and re-weighed to determine the output of saliva. Dose-response curves were fitted with a four parameter logistic equation to obtain estimates of ID50 (dose required to produce 50% of the maximal response).
By comparing the ID50 values determined in the rat bladder assay and rat salivation assay, the in vivo bladder/salivation selectivity ratio was calculated for the compounds tested.

COc1ccncc1CN1CCC(N(CCCCCCCN2CC[C@@H](C(C(N)=O)(c3ccccc3)c3ccccc3)C2)C(C)C)CC1 [Example 1]
ID50 (volume-induced bladder contraction amplitude) [1]: less than or equal to 0.1 mg/kg | ID50 (salivation) ([2]; intravenous, anesthetized female Sprague-Dawley rats, oxotremorine 1.0 mg/kg s.c.): greater than or equal to 0.9 mg/kg | ID50 bladder/salivation selectivity ratio ([2]; rat bladder assay vs rat salivation assay): greater than 20

Reference: US7285564B2, “Substituted 4-amino-1-(pyridylmethyl)piperidine and related compounds” (Theravance, Inc., priority 2002, dated 2007)
